Measurements: US6576247B1, “Sustained-release aromatic and method of detecting micro-organism by using the same” (Kanebo Ltd. and T. Hasegawa Co. Ltd., priority 1994, dated 2003)

Key:
[1] = test system: Coryneform bacteria (Corynebacterium); experiment: Glycoside decomposition ability test of Coryneform bacteria; assay type: cell-based; details: for Detected component and its amount: 2-phenylethyl alcohol: 32° C., glycoside 0.5% by weight in SCD liquid medium, GC-FID
Procedure: Each of the glycosides synthesized in Synthesis Examples 1 to 3 was added to a soybean casein digest liquid medium (SCD liquid medium) at an amount of 0.5% by weight based on the medium. To the liquid medium was inoculated 2% of bacterial liquid of Coryneform bacteria which had been precultured in an SCD liquid medium. This was cultured at 32° C. in a static state. The culture liquid was sampled after 2 days and 4 days culture and sterizing treatment was conducted on a conventional manner. After the sterizing treatment, aroma components were extracted with the same volume of diethyl ether as that of the culture liquid sampled. The structure of the components was identified on a GC-MS. The amount of the components released was determined on a GC with a detector of FID.

Saccharomyces cerevesiae = experiment: Perfume glycoside decomposition ability test of bread yeast; assay type: cell-based; details: glycoside 0.5% by weight in 15% sucrose solution, yeast 7% by weight, 4° C.
Procedure: Saccharomyces cerevesiae which had been cultured at 30° C. for 1 hour was added, at a concentration of 7% by weight, to a 15% by weight sucrose aqueous solution each containing the glycosides prepared in Synthesis Examples 2, 4 or 5 in an amount of 0.5% by weight. This was cultured at 4° C. while shaked. After 15 minutes and 4 hours culture, the culture liquid was sampled and centrifuged to precipitate the yeast. The supernatant was then extracted with the same volume of diethyl ether as that of the supernatant. The structure of the aroma components was identified on a GC-MS. The amount of the component released was determined on a GC with a detector of FID.

## OC[C@H]1O[C@H](OCCc2ccccc2)[C@H](O)[C@@H](O)[C@@H]1O [2-phenylethylglucoside (α-form), 2-Phenylethyl Glucoside (α-form)]
[1]; after 2 days culture
  Detected component and its amount: 2-phenylethyl alcohol: 0.01 peak area × 10^6
[1]; after 4 days culture
  Detected component and its amount: 2-phenylethyl alcohol: 0.3 peak area × 10^6
Saccharomyces cerevesiae; after 15 minutes culture
  Amount of aroma components: 0.4 peak area × 10^5
Saccharomyces cerevesiae; after 4 hours culture
  Amount of aroma components: 1.6 peak area × 10^5

## OC[C@H]1O[C@@H](OCCc2ccccc2)[C@H](O)[C@@H](O)[C@@H]1O [2-phenylethylglucoside (β-form), 2-Phenylethyl Glucoside (βform)]
[1]; after 2 days culture
  Detected component and its amount: 2-phenylethyl alcohol: 1.1 peak area × 10^6
[1]; after 4 days culture
  Detected component and its amount: 2-phenylethyl alcohol: 8.0 peak area × 10^6

## C=CCc1ccc(O[C@@H]2O[C@H](CO)[C@@H](O)[C@H](O)[C@H]2O)c(OC)c1 [eugenyl glucoside (β-form), Eugenyl Glucoside (β-form)]
Saccharomyces cerevesiae; after 15 minutes culture
  Amount of aroma components: 0.5 peak area × 10^5
Saccharomyces cerevesiae; after 4 hours culture
  Amount of aroma components: 1.3 peak area × 10^5

## CC(C)=CCCC(C)CCO[C@@H]1O[C@H](CO)[C@@H](O)[C@H](O)[C@H]1O (stereo partly drawn) [citronellyl glucoside (β-form), Citronellyl Glucoside (β-form)]
Saccharomyces cerevesiae; after 15 minutes culture
  Amount of aroma components: 2.6 peak area × 10^5
Saccharomyces cerevesiae; after 4 hours culture
  Amount of aroma components: 8.8 peak area × 10^5

## COc1cc(C=O)ccc1O[C@@H]1O[C@H](CO)[C@@H](O)[C@H](O)[C@H]1O [glucovanillin (β-form), Glucovanillin (β-form)]
[1]; after 2 days culture
  Detected component and its amount: vanillin: 0.01 peak area × 10^6
  Detected component and its amount: vanillyl alcohol: 0 peak area × 10^6
[1]; after 4 days culture
  Detected component and its amount: vanillin: 1.75 peak area × 10^6
  Detected component and its amount: vanillyl alcohol: 0.2 peak area × 10^6
